Data from the NIST ThermoML archive (doi:10.1021/acs.jced.7b00712).

Conditions: Fluid (supercritical or subcritical phases), Brillouin light scattering

CC(C)CC(C)(C)C [2,2,4-trimethylpentane]
Conditions	speed of sound [m/s]
543.74 K, 6000 kPa	314.4
544.07 K, 10000 kPa	409.3
544.08 K, 12000 kPa	448.4
547.77 K, 3000 kPa	135.2
548.38 K, 4000 kPa	216.1
548.79 K, 5000 kPa	262.4
548.93 K, 12000 kPa	439.8
548.94 K, 6000 kPa	301.9
549.02 K, 10000 kPa	399.6
552.48 K, 3000 kPa	103.8
553.35 K, 4000 kPa	194.1
553.8 K, 5000 kPa	247.6
553.96 K, 6000 kPa	286.4
554.24 K, 12000 kPa	430.8
554.27 K, 10000 kPa	392.6
558.01 K, 3000 kPa	97.9
558.52 K, 10000 kPa	386.7
558.54 K, 12000 kPa	426
559.12 K, 6000 kPa	272.8
559.16 K, 5000 kPa	232.4
559.18 K, 4000 kPa	172.1
563.28 K, 4000 kPa	154.4
564.27 K, 5000 kPa	214.5
564.68 K, 12000 kPa	415.3
564.81 K, 10000 kPa	374.5
564.85 K, 6000 kPa	257.3
567.24 K, 3000 kPa	109.9
568.08 K, 4000 kPa	137.3
569.24 K, 5000 kPa	201.2
569.81 K, 12000 kPa	404.7
570.06 K, 6000 kPa	244.3
570.54 K, 10000 kPa	362.4
570.76 K, 3000 kPa	112.7
573.32 K, 4000 kPa	122.1
574.23 K, 5000 kPa	187
574.7 K, 6000 kPa	233
574.8 K, 12000 kPa	398.5
575.07 K, 10000 kPa	354
576.9 K, 3000 kPa	117.3
578.09 K, 4000 kPa	114.9
579 K, 5000 kPa	173.2
579.62 K, 6000 kPa	222.1
580.26 K, 12000 kPa	388.5
580.32 K, 10000 kPa	343.6
582.97 K, 4000 kPa	114.7
583.34 K, 3000 kPa	121.9
584.13 K, 5000 kPa	161.6
584.82 K, 6000 kPa	208.9
585.19 K, 12000 kPa	379.7
585.35 K, 10000 kPa	337.5
586.96 K, 3000 kPa	125
587.1 K, 4000 kPa	116
588.18 K, 5000 kPa	151.1
588.98 K, 6000 kPa	199.3
589.39 K, 12000 kPa	374.8
589.65 K, 10000 kPa	331.2
592.49 K, 4000 kPa	117.9
592.79 K, 3000 kPa	130.8
593.39 K, 5000 kPa	140.6
594.09 K, 6000 kPa	191.7
594.93 K, 12000 kPa	363.8
595.15 K, 10000 kPa	318.7
597.57 K, 4000 kPa	119.2
597.98 K, 3000 kPa	136.1
598.54 K, 5000 kPa	135.1
599.18 K, 6000 kPa	184.6
600.35 K, 10000 kPa	311.6
600.58 K, 12000 kPa	356.1
602.34 K, 4000 kPa	121.2
602.56 K, 3000 kPa	141.1
603.22 K, 5000 kPa	132.5
604.02 K, 6000 kPa	175.1
604.68 K, 12000 kPa	350.2
605.01 K, 10000 kPa	304.3
607.09 K, 4000 kPa	124.3
607.67 K, 5000 kPa	131
607.97 K, 3000 kPa	145.8
608.43 K, 6000 kPa	167.7
609.5 K, 12000 kPa	342.6
609.62 K, 10000 kPa	295.9
612.44 K, 4000 kPa	129.9
612.74 K, 5000 kPa	131.9
613.31 K, 3000 kPa	150.4
613.49 K, 6000 kPa	164.3
614.69 K, 10000 kPa	286.8
614.9 K, 12000 kPa	336.6
617.81 K, 4000 kPa	134.8
618.08 K, 5000 kPa	135
618.6 K, 6000 kPa	159.9
618.84 K, 3000 kPa	154.9
619.6 K, 12000 kPa	329.3
619.8 K, 10000 kPa	281.3
622.75 K, 4000 kPa	139
622.82 K, 5000 kPa	137.2
623.43 K, 6000 kPa	156.1
623.75 K, 3000 kPa	159.5
624.61 K, 12000 kPa	321.5
624.7 K, 10000 kPa	276.4
627.69 K, 5000 kPa	141.2
628.07 K, 4000 kPa	145.5
628.11 K, 6000 kPa	153.4
629.13 K, 10000 kPa	269.4
629.2 K, 12000 kPa	316.9
629.42 K, 3000 kPa	164
631.25 K, 5000 kPa	143.4
631.51 K, 6000 kPa	156
632.19 K, 4000 kPa	148.1
633.71 K, 3000 kPa	166.1
